The structures appear in SMILES notation. Values after ≈ are worked out from the molar mass of the structure shown. Bounds are passed on as bounds.

The conditions of this series: buffer; pH 7.4; 200.0 µM.
In the case of `O=C(Nc1ccccc1Cl)C1Cc2ccccc2O/C1=N\O` (configuration not stated), the solubility (kinetic) was more than 47.5 µg/mL.
On to `O=C(Cc1cccs1)Nc1ccc(F)cc1`, for which the solubility (kinetic) was more than 35.3 µg/mL.
In turn, `COc1cccc(/C=C2\N=C(C3CCCCC3)OC2=O)c1OC` registered a kinetic solubility of 16.4 µg/mL (≈ 52 µM).
As to `O=C(CCl)Nc1cccc(S(=O)(=O)NC2=NCCCCC2)c1`, the kinetic solubility was more than 51.6 µg/mL.
Then `Cc1ncc([N+](=O)[O-])n1CC(=O)Nc1ccc(F)cc1F`, with 34 µg/mL (≈ 115 µM).
The molecule `Cc1[nH]c2ccccc2c1C(=O)COC(=O)C1CCC1` had a solubility (kinetic) of 24.1 µg/mL (≈ 88.8 µM).
Turning to `Cc1cccc(C(=O)Nc2ccc3c(c2)ncn3C)c1`, the solubility (kinetic) was more than 39.8 µg/mL.
`COCCCNC(=S)Nc1c(C)cc(C)cc1C` registered a solubility (kinetic) of 37.2 µg/mL (≈ 140 µM).
Molecule `O=C(NCc1ccc2c(c1)OCO2)c1ccc(Br)o1` registered a kinetic solubility of more than 48.6 µg/mL.
Then `COc1cccc(/C=c2\s/c(=C\C(=O)C(C)(C)C)[nH]c2=O)c1`, with 2.1 µg/mL (≈ 6.62 µM); and `Cc1ccc(OCCCn2c(=O)oc3ccccc32)cc1`, with 2 µg/mL (≈ 7.06 µM).
Then `CCN(CC)CCCNC(=O)c1cc(-c2ccc3c(c2)OCO3)on1`, with 49.4 µg/mL (≈ 143 µM); and `COc1ccc(CC(=O)OCC(=O)Nc2ccc3c(c2)OCO3)cc1`, with more than 51.5 µg/mL.
Then `Cc1ccc(C2=NN(CC(=O)NCCN(C)C)C(=O)CC2)cc1`, with more than 47.5 µg/mL; and `CCCNC(=O)[C@H](C)NC(=O)c1ccc(Br)cc1`, with more than 47 µg/mL; and `CS(=O)(=O)N1CCCC(C(=O)Nc2ccccc2Cl)C1` (configuration not stated), with more than 47.5 µg/mL.
The molecule `Cc1ccc(N2C(=O)C3CCCN3C2=S)cc1` (configuration not stated) came in with a solubility (kinetic) of 34.2 µg/mL (≈ 139 µM).
Consider `COc1ccccc1CN1CCCCC1C(=O)O` (configuration not stated), for which the kinetic solubility came to 35.8 µg/mL (≈ 144 µM). This solubility kinetic and that of the molecule before are within 1.5-fold of each other.
`O=C(NCC1CCCO1)c1ccc([N+](=O)[O-])o1` (configuration not stated) came in with a solubility (kinetic) of more than 36 µg/mL.
For `COC(=O)CSc1ncnc2scc(-c3ccccc3)c12`, the kinetic solubility was found to be 11.2 µg/mL (≈ 35.4 µM).
`COn1c(=O)c(-c2ccc(C)cc2)[n+]([O-])c2ccccc21`: the kinetic solubility was more than 42.3 µg/mL.
For the molecule `O=C(NCCCn1ccnc1)c1ccc(Cl)s1`, the solubility (kinetic) was more than 40.5 µg/mL.
Then `COc1ccc(NC(=O)CSc2ncnc3sc(C)cc23)cc1`, with 1.2 µg/mL (≈ 3.47 µM); and `Cc1ccc2[nH]cc(S(=O)(=O)c3ccc(C(C)C)cc3)c(=O)c2c1`, with less than 0.7 µg/mL.
`CC(=O)N(CCc1cccc(C)c1)Cc1cc2cc(C)ccc2[nH]c1=O` returned a solubility (kinetic) of 1.1 µg/mL (≈ 3.16 µM).
Next, `CN(n1cnc2ccccc2c1=O)S(C)(=O)=O`: more than 38 µg/mL; `CSc1ccccc1NC(=S)NC1CCCC1`: more than 40 µg/mL; `Nc1nc(NCCc2ccccc2)nc(NCCO)c1[N+](=O)[O-]`: 46.3 µg/mL (≈ 145 µM).
In turn, `CC(=O)c1ccc(NC(=O)c2cc(C)no2)cc1` had a kinetic solubility of 13.3 µg/mL (≈ 54.5 µM).
For `COc1cccc(CNC(=O)CCC(=O)N2CCOCC2)c1`, the solubility (kinetic) was more than 46 µg/mL.
`c1ccc2nc3ccccc3nc2c1` displayed a solubility (kinetic) of 12.3 µg/mL (≈ 68.3 µM).
With `CC1(C)CC(NC(=O)c2cc(Cl)ccc2Cl)CC(C)(C)N1`, the solubility (kinetic) was more than 49.4 µg/mL.
In turn, `CSc1ccc(CN(C)C(=O)C(c2ccccc2)c2ccccc2)cc1` showed a solubility (kinetic) of 7.7 µg/mL (≈ 21.3 µM).
`CN1CC(C(=O)c2ccccc2)C(c2ccccc2)C1` (configuration not stated) returned a solubility (kinetic) of more than 39.8 µg/mL.
Regarding `Cc1cc(C)cc(NC(=O)CCOc2ccccc2)c1`, the kinetic solubility was found to be 4.1 µg/mL (≈ 15.2 µM).
In turn, `CN(C(=S)NCCN1CCOCC1)C(c1ccccc1)c1ccccc1` displayed a kinetic solubility of 42.7 µg/mL (≈ 116 µM).
`COc1ccc(C(=O)NCCSCc2ccc(Cl)cc2)cc1OC`: the kinetic solubility is 3.9 µg/mL (≈ 10.7 µM).
`Nc1nc(SCC(=O)Nc2cccnc2Cl)n[nH]1` returned a solubility (kinetic) of more than 42.7 µg/mL.
`CCCCn1c(O)c(/C=C2\C=Nc3ccccc32)c(=O)[nH]c1=O`: the kinetic solubility was found to be 3.1 µg/mL (≈ 9.96 µM).
`Cc1ccc(C(=O)NCCNC(=O)c2cnccn2)cc1` gave a kinetic solubility of 34.9 µg/mL (≈ 123 µM).
With `COc1ccc(NC(=O)CSC2=NCCN2)cc1.Cl`, the solubility (kinetic) was more than 45.3 µg/mL.
On to `CCCn1c(SCC(=O)NC2CCCC2)nnc1C(C)C`, for which the solubility (kinetic) is more than 46.6 µg/mL.
Molecule `CN1CCC(N(C)S(=O)(=O)c2ccc(F)cc2F)CC1` registered a solubility (kinetic) of more than 45.7 µg/mL.
Then `O=C(CCCCC(=O)Nc1c(I)cc(I)c(C(=O)O)c1I)Nc1c(I)cc(I)c(C(=O)O)c1I`, with more than 171 µg/mL.
Next, `Cc1ccc(OCCCC(=O)ON=C(N)c2ccccc2C)cc1`: 19.9 µg/mL (≈ 61 µM); `c1ccc(NC(c2ccccc2)c2ccncc2)cc1` (configuration not stated): 25.5 µg/mL (≈ 97.9 µM).
Take `c1ccc(-c2ncc3ccccn23)cc1`: the kinetic solubility is 19.1 µg/mL (≈ 98.3 µM). This solubility kinetic and that of the molecule before are within 1.5-fold of each other.
As for `CC1(C)OC(=O)N(CCC(=O)Nc2cccc(F)c2)C1(C)O` (configuration not stated), the solubility (kinetic) is more than 46.5 µg/mL.
`CCOc1ccccc1NC(=O)NCc1ccco1` showed a solubility (kinetic) of 9.8 µg/mL (≈ 37.6 µM).
`COc1ccnc2c1c(=O)n(Cc1ccc(F)cc1)c(=O)n2C` came in with a solubility (kinetic) of 25.2 µg/mL (≈ 79.9 µM).
For `Cc1cccnc1NC(=O)CCNC(=O)c1ccccc1Cl`, the kinetic solubility is more than 47.7 µg/mL.
Turning to `CCOc1ccccc1NC(=O)CCn1ccnc1`, the solubility (kinetic) worked out at 37 µg/mL (≈ 143 µM).

Broadly, the solubility (kinetic) is solubility judged after dilution from a stock solution rather than from solid.
